Results reported in ChEMBL document CHEMBL1201862, “PubChem BioAssay data set” (2004).
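Cells were grown in 96-well plates and exposed to each compound for 48 hours at five concentrations; endpoints were interpolated linearly between bracketing concentrations, or set to the highest concentration if not reached. GI50 is the concentration that inhibits growth by half.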 Calls of active or inactive are those of the source. No stated cut-off is given here; in the data, active = GI50 up to about 1.1 µM and inactive = higher.

Assays:
Experiment in all cases: DTP human tumour cell line panel, 48 h
Malme-3M = tested on: Malme-3M
NCI-H23 = tested on: NCI-H23
SF-539 = tested on: SF-539
PC-3 = tested on: PC-3
HL-60 = tested on: HL-60
DU-145 = tested on: DU-145
MDA-MB-435 = tested on: MDA-MB-435
HOP-62 = tested on: HOP-62
SN12C = tested on: SN12C
OVCAR-4 = tested on: OVCAR-4
SF-268 = tested on: SF-268
SNB-75 = tested on: SNB-75
M14 = tested on: M14
OVCAR-8 = tested on: OVCAR-8
RPMI-8226 = tested on: RPMI-8226
HT-29 = tested on: HT-29
KM12 = tested on: KM12
SF-295 = tested on: SF-295
COLO 205 = tested on: COLO 205
SR = tested on: SR
EKVX = tested on: EKVX
U-251 = tested on: U-251
HCT-15 = tested on: HCT-15
SW-620 = tested on: SW-620
786-0 = tested on: 786-0
NCI-H522 = tested on: NCI-H522
MDA-MB-231 = tested on: MDA-MB-231
SK-MEL-28 = tested on: SK-MEL-28
Hs-578T = tested on: Hs-578T
MCF7 = tested on: MCF7
SK-MEL-2 = tested on: SK-MEL-2
LOX IMVI = tested on: LOX IMVI
SK-OV-3 = tested on: SK-OV-3
T47D = tested on: T47D
CCRF-CEM = tested on: CCRF-CEM
CAKI-1 = tested on: CAKI-1
NCI-H460 = tested on: NCI-H460
OVCAR-5 = tested on: OVCAR-5
ACHN = tested on: ACHN
UACC-62 = tested on: UACC-62
UO-31 = tested on: UO-31
A549 = tested on: A549
RXF 393 = tested on: RXF 393
SK-MEL-5 = tested on: SK-MEL-5
MDA-N = tested on: MDA-N
HCT-116 = tested on: HCT-116
BT-549 = tested on: BT-549
K562 = tested on: K562
IGROV-1 = tested on: IGROV-1
MOLT-4 = tested on: MOLT-4
OVCAR-3 = tested on: OVCAR-3
UACC-257 = tested on: UACC-257
NCI/ADR-RES = tested on: NCI/ADR-RES
TK-10 = tested on: TK-10
SNB-19 = tested on: SNB-19
NCI-H226 = tested on: NCI-H226
HOP-92 = tested on: HOP-92
HCC 2998 = tested on: HCC 2998

C/C(=N\Nc1nc2ccccc2[nH]1)c1ccc2ccccc2n1
GI50 (Malme-3M): 2.4 µM (inactive) | GI50 (NCI-H23): 3.89 µM (inactive) | GI50 (SF-539): 3.27 µM (inactive) | GI50 (PC-3): 1.44 µM (inactive) | GI50 (HL-60): 1.8 µM (inactive) | GI50 (DU-145): 1.91 µM (inactive) | GI50 (MDA-MB-435): 4.29 µM (inactive) | GI50 (HOP-62): 2.78 µM (inactive) | GI50 (SN12C): 1.52 µM (inactive) | GI50 (OVCAR-4): 1.85 µM (inactive) | GI50 (SF-268): 1.97 µM (inactive) | GI50 (SNB-75): 2.19 µM (inactive) | GI50 (M14): 1.24 µM (inactive) | GI50 (OVCAR-8): 3.33 µM (inactive) | GI50 (RPMI-8226): 0.897 µM (active) | GI50 (HT-29): 0.948 µM (active) | GI50 (KM12): 2.08 µM (inactive) | GI50 (SF-295): 2.49 µM (inactive) | GI50 (COLO 205): 3.15 µM (inactive) | GI50 (SR): 0.08 µM (active) | GI50 (EKVX): 0.678 µM (active) | GI50 (U-251): 1.81 µM (inactive) | GI50 (HCT-15): 1.29 µM | GI50 (SW-620): 3.58 µM (inactive) | GI50 (786-0): 1.9 µM (inactive) | GI50 (NCI-H522): 2.33 µM (inactive) | GI50 (MDA-MB-231): 1.87 µM (inactive) | GI50 (SK-MEL-28): 3.79 µM (inactive) | GI50 (Hs-578T): 10.8 µM (inactive) | GI50 (MCF7): 2.17 µM (inactive) | GI50 (SK-MEL-2): 1.67 µM (inactive) | GI50 (LOX IMVI): 2.11 µM (inactive) | GI50 (SK-OV-3): 8.87 µM (inactive) | GI50 (T47D): 0.343 µM (active) | GI50 (CCRF-CEM): 1.05 µM (active) | GI50 (CAKI-1): 0.339 µM (active) | GI50 (NCI-H460): 2.25 µM (inactive) | GI50 (OVCAR-5): 2.25 µM (inactive) | GI50 (ACHN): 3.15 µM (inactive) | GI50 (UACC-62): 2.6 µM (inactive) | GI50 (UO-31): 1.06 µM (active) | GI50 (A549): 2.52 µM (inactive) | GI50 (RXF 393): 2.73 µM (inactive) | GI50 (SK-MEL-5): 1.46 µM (inactive) | GI50 (MDA-N): 3.97 µM (inactive) | GI50 (HCT-116): 1.95 µM (inactive) | GI50 (BT-549): > 100 µM (inactive) | GI50 (K562): 2.39 µM (inactive) | GI50 (IGROV-1): 0.129 µM (active) | GI50 (MOLT-4): 0.755 µM (active) | GI50 (OVCAR-3): 0.592 µM (active) | GI50 (UACC-257): 3.55 µM (inactive) | GI50 (NCI/ADR-RES): 1.85 µM (inactive) | GI50 (TK-10): 3.04 µM (inactive) | GI50 (SNB-19): 2.75 µM (inactive)

NC(=S)NC/C=C/Cl
GI50 (Malme-3M): > 100 µM (inactive) | GI50 (NCI-H23): > 100 µM (inactive) | GI50 (PC-3): > 100 µM (inactive) | GI50 (HL-60): > 100 µM (inactive) | GI50 (DU-145): > 100 µM (inactive) | GI50 (MDA-MB-435): > 100 µM (inactive) | GI50 (HOP-62): > 100 µM (inactive) | GI50 (NCI-H226): > 100 µM (inactive) | GI50 (OVCAR-4): > 100 µM (inactive) | GI50 (SNB-75): > 100 µM (inactive) | GI50 (M14): > 100 µM (inactive) | GI50 (OVCAR-8): > 100 µM (inactive) | GI50 (RPMI-8226): > 100 µM (inactive) | GI50 (HT-29): > 100 µM (inactive) | GI50 (KM12): > 100 µM (inactive) | GI50 (SF-295): > 100 µM (inactive) | GI50 (COLO 205): > 100 µM (inactive) | GI50 (SR): > 100 µM (inactive) | GI50 (EKVX): > 100 µM (inactive) | GI50 (HCT-15): > 100 µM | GI50 (SW-620): > 100 µM (inactive) | GI50 (786-0): > 100 µM (inactive) | GI50 (NCI-H522): 86.5 µM (inactive) | GI50 (MDA-MB-231): > 100 µM (inactive) | GI50 (Hs-578T): > 100 µM (inactive) | GI50 (MCF7): > 100 µM (inactive) | GI50 (SK-MEL-2): > 100 µM (inactive) | GI50 (LOX IMVI): > 100 µM (inactive) | GI50 (SK-OV-3): > 100 µM (inactive) | GI50 (T47D): > 100 µM (inactive) | GI50 (CCRF-CEM): > 100 µM (inactive) | GI50 (CAKI-1): > 100 µM (inactive) | GI50 (NCI-H460): > 100 µM (inactive) | GI50 (OVCAR-5): > 100 µM (inactive) | GI50 (ACHN): > 100 µM (inactive) | GI50 (HOP-92): > 100 µM (inactive) | GI50 (UACC-62): > 100 µM (inactive) | GI50 (UO-31): > 100 µM (inactive) | GI50 (A549): > 100 µM (inactive) | GI50 (RXF 393): > 100 µM (inactive) | GI50 (SK-MEL-5): > 100 µM (inactive) | GI50 (MDA-N): > 100 µM (inactive) | GI50 (HCT-116): > 100 µM (inactive) | GI50 (BT-549): > 100 µM (inactive) | GI50 (K562): > 100 µM (inactive) | GI50 (IGROV-1): > 100 µM (inactive) | GI50 (MOLT-4): > 100 µM (inactive) | GI50 (OVCAR-3): > 100 µM (inactive) | GI50 (UACC-257): > 100 µM (inactive) | GI50 (NCI/ADR-RES): > 100 µM (inactive) | GI50 (TK-10): > 100 µM (inactive) | GI50 (SNB-19): > 100 µM (inactive)

NC1Cc2ccccc2OC1=O (centres undefined)
GI50 (Malme-3M): > 100 µM (inactive) | GI50 (NCI-H23): > 100 µM (inactive) | GI50 (SF-539): > 100 µM (inactive) | GI50 (PC-3): > 100 µM (inactive) | GI50 (DU-145): > 100 µM (inactive) | GI50 (MDA-MB-435): > 100 µM (inactive) | GI50 (HOP-62): > 100 µM (inactive) | GI50 (NCI-H226): > 100 µM (inactive) | GI50 (SN12C): > 100 µM (inactive) | GI50 (SF-268): > 100 µM (inactive) | GI50 (SNB-75): > 100 µM (inactive) | GI50 (M14): > 100 µM (inactive) | GI50 (OVCAR-8): > 100 µM (inactive) | GI50 (RPMI-8226): > 100 µM (inactive) | GI50 (HT-29): > 100 µM (inactive) | GI50 (KM12): > 100 µM (inactive) | GI50 (SF-295): > 100 µM (inactive) | GI50 (COLO 205): > 100 µM (inactive) | GI50 (SR): > 100 µM (inactive) | GI50 (EKVX): > 100 µM (inactive) | GI50 (U-251): > 100 µM (inactive) | GI50 (HCT-15): > 100 µM | GI50 (SW-620): > 100 µM (inactive) | GI50 (786-0): > 100 µM (inactive) | GI50 (NCI-H522): > 100 µM (inactive) | GI50 (MDA-MB-231): > 100 µM (inactive) | GI50 (SK-MEL-28): > 100 µM (inactive) | GI50 (Hs-578T): > 100 µM (inactive) | GI50 (MCF7): > 100 µM (inactive) | GI50 (SK-MEL-2): > 100 µM (inactive) | GI50 (SK-OV-3): > 100 µM (inactive) | GI50 (HCC 2998): > 100 µM (inactive) | GI50 (T47D): > 100 µM (inactive) | GI50 (CAKI-1): > 100 µM (inactive) | GI50 (NCI-H460): > 100 µM (inactive) | GI50 (OVCAR-5): > 100 µM (inactive) | GI50 (ACHN): > 100 µM (inactive) | GI50 (UACC-62): > 100 µM (inactive) | GI50 (UO-31): > 100 µM (inactive) | GI50 (A549): > 100 µM (inactive) | GI50 (RXF 393): > 100 µM (inactive) | GI50 (SK-MEL-5): > 100 µM (inactive) | GI50 (MDA-N): > 10 µM (inactive) | GI50 (BT-549): > 100 µM (inactive) | GI50 (K562): > 100 µM (inactive) | GI50 (IGROV-1): > 100 µM (inactive) | GI50 (MOLT-4): > 100 µM (inactive) | GI50 (OVCAR-3): > 100 µM (inactive) | GI50 (UACC-257): > 100 µM (inactive) | GI50 (NCI/ADR-RES): > 100 µM (inactive) | GI50 (TK-10): > 100 µM (inactive) | GI50 (SNB-19): > 100 µM (inactive)
